We go through 29 compounds from PubChem BioAssay AID1259408 (Genetic Toxicology Data Bank (GENE-TOX), 2018).

Active and inactive are the calls of the source. How the calls were made is not given here.

This series relates to GENE-TOX genotoxicity assays, various organisms and cells. Briefly: GENE-TOX mutagenicity studies. The note with it: for call: Assay Type: In vivo carcinogenicity studies.
Where [1] appears, read: Species/Cell Type: Nonhuman, Assay Type: Sister-chromatid exchange (SCE) in vitro, Assay Code: SC2+D, Dose Response: With dose response, Evaluation Type: Evaluation B (Post-1980).
The mark [2] stands for this setting: Species/Cell Type: Salmonella typhimurium (one or more of the five standard strains: TA98, TA100, TA1535, TA1537, and TA1538), Assay Type: Histidine reverse gene mutation, Ames assay, Assay Code: SAL+*, Activation: With metabolic activation, Evaluation Type: Evaluation A (Pre-1980).
Where [3] appears, read: Species/Cell Type: Salmonella typhimurium (one or more of the five standard strains: TA98, TA100, TA1535, TA1537, and TA1538), Assay Type: Histidine reverse gene mutation, Ames assay, Assay Code: SAL+, Evaluation Type: Evaluation A (Pre-1980).
[4] abbreviates: Species/Cell Type: Salmonella typhimurium (one or more of the five standard strains: TA98, TA100, TA1535, TA1537, and TA1538), Assay Type: Histidine reverse gene mutation, Ames assay, Assay Code: SALT, Evaluation Type: Evaluation A (Pre-1980).
Setting [5] is: Species/Cell Type: Nonhuman, Assay Code: CCG+L, Evaluation Type: Evaluation A (Pre-1980).
[6] abbreviates: Species/Cell Type: Escherichia coli polA (W3119 vs P3478), Assay Type: Rec-assay, DNA effects (bacterial DNA repair), Assay Code: RE1T, Evaluation Type: Evaluation A (Pre-1980).
[7] abbreviates: Species/Cell Type: Saccharomyces cerevisiae, Assay Type: Mitotic recombination or gene conversion, Assay Code: YEH+/-*, Activation: With metabolic activation, Evaluation Type: Evaluation A (Pre-1980).
[8] abbreviates: Species/Cell Type: Syrian hamster embryo (SHE) cells, Assay Type: Cell transformation, clonal assay, Assay Code: CTC+, Evaluation Type: Evaluation A (Pre-1980).

With `CCN(N=O)C(=O)Nc1ccccc1`, under setting [1], the mutagenic call is “active; positive”.

Consider `CCc1ccc(O)c(O)c1`, for which the mutagenic call (Species/Cell Type: Allium cepa, Assay Type: Chromosome aberrations, Assay Code: ALC-, Evaluation Type: Evaluation A (Pre-1980)) was “inactive; negative”.

Take `O=C1c2ccccc2C(=O)c2c1ccc(O[C@@H]1O[C@H](CO)[C@@H](O)[C@H](O)[C@H]1O)c2O`: the mutagenic call under setting [2] was “active; positive”.

For the compound `CCCCCCCCCCCCCCCCCC(=O)O`, the mutagenic call (Species/Cell Type: Escherichia coli polA (W3119 vs P3478), Assay Type: Rec-assay, DNA effects (bacterial DNA repair), Assay Code: RE1-, Evaluation Type: Evaluation A (Pre-1980)) was “inactive; negative”.

Take `O=C(COc1ccc(Br)cc1CN1CCOCC1)N/N=C/c1ccccc1`: the mutagenic call (Species/Cell Type: Saccharomyces cerevisiae, Assay Type: Reverse gene mutation, Assay Code: YERT, Evaluation Type: Evaluation A (Pre-1980)) is reported as “no conclusion”.

For the compound `Clc1ccc(C(c2ccccc2Cl)C(Cl)(Cl)Cl)cc1` (stereo not drawn), the mutagenic call (Species/Cell Type: Nonhuman, Assay Type: Chromosome aberrations in vitro, Assay Code: CY&+, Evaluation Type: Evaluation A (Pre-1980)) is “active; positive”.

In the case of `N/C(=N\O)c1ccc([N+](=O)[O-])o1`, the mutagenic call reads like this: under setting [1], “active; positive”; under setting [3], “active; positive”.

Consider `Nc1nc(-c2ccc([N+](=O)[O-])[nH]2)cs1`, for which, under setting [4], the mutagenic call was “no conclusion”.

Turning to `CCCOC1=C(N2CC2)C(=O)C(OCCC)=C(N2CC2)C1=O`, the mutagenic call was “active; positive” (Species/Cell Type: Drosophila melanogaster, Assay Type: Sex-linked recessive lethal gene mutation, Assay Code: SRL+, Evaluation Type: Evaluation A (Pre-1980)); “active; positive” (Species/Cell Type: Human lymphocytes, Assay Type: Sister-chromatid exchange (SCE) in vitro, Assay Code: SCL+D, Dose Response: With dose response, Evaluation Type: Evaluation B (Post-1980)); “active; positive” (Species/Cell Type: Human, Assay Type: Sister-chromatid exchange (SCE) in vitro, Assay Code: SC1+D, Dose Response: With dose response, Evaluation Type: Evaluation B (Post-1980)).

Turning to `CC(=O)OC[C@H]1O[C@@H](Oc2ccc3c(c2O)C(=O)c2ccccc2C3=O)[C@H](OC(C)=O)[C@@H](OC(C)=O)[C@@H]1OC(C)=O`, the mutagenic call under setting [4] is given as “no conclusion”.

Regarding `NCC[C@H](O)C(=O)N[C@@H]1C[C@H](N)[C@@H](O[C@H]2O[C@H](CN)[C@@H](O)[C@H](O)[C@H]2O)[C@H](O)[C@H]1O[C@H]1O[C@H](CO)[C@@H](O)[C@H](N)[C@H]1O`, under “Species/Cell Type: Saccharomyces cerevisiae, Assay Type: Mitotic recombination or gene conversion, Assay Code: YEH-, Evaluation Type: Evaluation A (Pre-1980)”, the mutagenic call is “inactive; negative”.

In the case of `CC(=O)NCc1nc(-c2ccc([N+](=O)[O-])o2)no1`, under setting [3], the mutagenic call is “active; positive”.

For `COc1cc2c(c3c(C)cc4ccccc4c13)CCC2=O`, the mutagenic call under setting [2] was “active; positive”.

For the compound `NC(=O)N1c2ccccc2C=Cc2ccc(O)cc21`, the mutagenic call (Species/Cell Type: Human lymphocytes, Assay Type: Sister-chromatid exchange (SCE) in vitro, Assay Code: SCLT, Evaluation Type: Evaluation B (Post-1980)) is “no conclusion” and the mutagenic call (Species/Cell Type: Human, Assay Type: Sister-chromatid exchange (SCE) in vitro, Assay Code: SC1T, Evaluation Type: Evaluation B (Post-1980)) is listed as “no conclusion”.

For the compound `Nc1ccc(Br)cc1`, the mutagenic call runs as follows: (Species/Cell Type: Mouse, Sex: Male, Assay Type: Sperm morphology, Assay Code: SPI-, Evaluation Type: Evaluation A (Pre-1980)) “inactive; negative”; (Species/Cell Type: Nonhuman, Assay Type: Sister-chromatid exchange (SCE) in vivo, Assay Code: SC3T, Evaluation Type: Evaluation B (Post-1980)) “no conclusion”.

For the compound `CC1=C2CCc3c2c(cc2c3ccc3ccccc32)C(O)C1O` (stereo not drawn), where the note is “Species/Cell Type: Chinese hamster lung (V79) cells, Assay Type: Forward gene mutation at the HPRT or ouabain locus, Assay Code: V79-, Evaluation Type: Evaluation A (Pre-1980)”, the mutagenic call is “inactive; negative”. Also, under setting [5], the call was “active; positive”.

In the case of `CC1OC1C` (stereo not drawn), the mutagenic call (Species/Cell Type: Neurospora crassa, Assay Type: Reverse gene mutation, Assay Code: NER+, Evaluation Type: Evaluation A (Pre-1980)) was “active; positive”.

As for `CCC1(c2ccccc2)CCC(=O)NC1=O` (stereo not drawn), the mutagenic call (Species/Cell Type: Drosophila melanogaster, Assay Type: Aneuploidy, sex chromosome gain, chromosome aberrations, Assay Code: DAG-M, Evaluation Type: Evaluation A (Pre-1980)) is “inactive; negative” and the mutagenic call (Species/Cell Type: Drosophila melanogaster, Assay Type: Aneuploidy, whole sex chromosome loss, chromosome aberrations, Assay Code: DAC-M, Evaluation Type: Evaluation A (Pre-1980)) was “inactive; negative”.

As to `COc1cc(N=Nc2ccccc2)ccc1N`, the mutagenic call is, setting by setting: (Species/Cell Type: Escherichia coli polA (W3110 vs P3478), Assay Type: Rec-assay, DNA effects (bacterial DNA repair), Assay Code: RE2+, Evaluation Type: Evaluation A (Pre-1980)) “active; positive”; under setting [6], “no conclusion”; under setting [7], “inactive; positive without activation, negative with activation”; under setting [2], “active; positive”; (Species/Cell Type: Salmonella typhimurium, Assay Type: Forward and reverse gene mutation, host-mediated assay, Assay Code: HMA+, Evaluation Type: Evaluation A (Pre-1980)) “active; positive”; under setting [8], “active; positive”. For the same compound, the call under setting [5] was “active; positive”.

Take `ClCC(Br)CBr` (stereo not drawn): the mutagenic call was “active; positive” (Species/Cell Type: Escherichia coli polA (W3119 vs P3478), Assay Type: Rec-assay, DNA effects (bacterial DNA repair), Assay Code: RE1+, Evaluation Type: Evaluation A (Pre-1980)); “active; positive” (Species/Cell Type: Human, Sex: Male, Assay Type: Sperm morphology, Assay Code: SPH+, Evaluation Type: Evaluation A (Pre-1980)); “active; positive” under setting [1]; “active; positive” under setting [3]; “inactive; negative” (Species/Cell Type: Salmonella typhimurium, Assay Type: Forward and reverse gene mutation, body fluid assay, Assay Code: BFU-, Evaluation Type: Evaluation A (Pre-1980)). In addition, for the setting “Species/Cell Type: Nonhuman, Assay Code: CCG+, Evaluation Type: Evaluation A (Pre-1980)”, the call is “active; positive”.

`[Cl][Tb]([Cl])[Cl]`: the mutagenic call (Species/Cell Type: Bacillus subtilis (H17 vs M45), Assay Type: Rec-assay, spot test, DNA effects (bacterial DNA repair), Assay Code: REW-, Evaluation Type: Evaluation A (Pre-1980)) is “inactive; negative”.

`OC(c1ccccc1)C(c1ccccc1)c1ccccc1` (stereo not drawn): the mutagenic call under setting [6] is given as “no conclusion”.

As to `c1ccc2cc(C3CO3)ccc2c1` (stereo not drawn), the mutagenic call under setting [3] was “active; positive”.

For `CC1(C)O[C@@H]2C[C@H]3[C@@H]4C[C@H](F)C5=CC(=O)C=C[C@]5(C)[C@@]4(F)[C@@H](O)C[C@]3(C)[C@]2(C(=O)CO)O1`, the mutagenic call (Species/Cell Type: Syrian hamster embryo (SA7/SHE) cells, Assay Type: Cell transformation, viral enhanced, Assay Code: CT7+, Evaluation Type: Evaluation A (Pre-1980)) was “active; positive”.

With `Cn1sc(Cl)cc1=O`, the mutagenic call (Species/Cell Type: Mammalian polychromatic erythrocytes, Assay Type: Micronucleus test, chromosome aberrations, Assay Code: MNT-, Evaluation Type: Evaluation B (Post-1980)) is “inactive; negative”.

As for `ClC(Cl)(Cl)C1CO1` (stereo not drawn), the mutagenic call is “no conclusion” (Species/Cell Type: Drosophila melanogaster, Assay Type: Sex-linked recessive lethal gene mutation, Assay Code: SRLT, Evaluation Type: Evaluation A (Pre-1980)); “active; positive” (Species/Cell Type: Human lymphocytes, Assay Type: Sister-chromatid exchange (SCE) in vitro, Assay Code: SCL+, Evaluation Type: Evaluation B (Post-1980)); “active; positive” (Species/Cell Type: Human, Assay Type: Sister-chromatid exchange (SCE) in vitro, Assay Code: SC1+, Evaluation Type: Evaluation B (Post-1980)); “inactive; positive without activation, negative with activation” under setting [7].

With `Oc1cc2cc3ccccc3cc2c2ccccc12`, the mutagenic call runs as follows: (Species/Cell Type: Chinese hamster lung (V79) cells, Assay Type: Forward gene mutation at the HPRT or ouabain locus, Assay Code: V79+, Evaluation Type: Evaluation A (Pre-1980)) “active; positive”; (Species/Cell Type: Mouse prostate cells, Assay Type: Cell transformation, Assay Code: CTM-, Evaluation Type: Evaluation A (Pre-1980)) “inactive; negative”; under setting [8], “active; positive”.

For the compound `Nc1cnn(-c2ccccc2)c(=O)c1Cl`, the mutagenic call (Species/Cell Type: Saccharomyces cerevisiae, Assay Type: Mitotic recombination or gene conversion, Assay Code: YEC-, Evaluation Type: Evaluation A (Pre-1980)) is “inactive; negative”.

Regarding `O=c1nc(NO)ccn1[C@@H]1O[C@H](CO)[C@@H](O)[C@H]1O`, the mutagenic call is, setting by setting: (Species/Cell Type: Escherichia coli WP2, Assay Type: Tryptophan reverse gene mutation, Assay Code: WP2+D, Dose Response: With dose response, Evaluation Type: Evaluation A (Pre-1980)) “active; positive”; (Species/Cell Type: Escherichia coli WP2 UVRA, Assay Type: Tryptophan reverse gene mutation, Assay Code: WPU+D, Dose Response: With dose response, Evaluation Type: Evaluation A (Pre-1980)) “active; positive”.
